Tests used:
[1] = tested on: IL-2 release from Jurkat cells; assay: Inhibition of IL-2 release from Jurkat cells; format: cell-based; settings: Homo sapiens; Jurkat cells stimulated with ionomycin/PMA, IL-2 ELISA of supernatants
Method: (§1) To determine the effect of the compounds according to the invention on the said cytokines, the inhibition of the release of IL-2,IL-4 and IL-5 from T cells was investigated in vitro.
Jurkat cells (clone E6-1, batch F-12871, from ATCC, Rockville, Md.) are seeded at about 100,000 cells in 50μ per well in microtitre plates and preincubated in an incubator (5% CO2/37° C./100% humidity). The medium employed is RPMI-1640 with HEPES/10% FCS/2 mM glutamine/100 U/m penicillin/100 mg/m streptomycin and 50 μM mercaptoethanol. After 3 hours, the substances to be tested are applied in various concentrations (100μ per well). To determine the spontaneous value and maximum values, in each case only medium/0.2% DMSO is applied. 30 minutes after application of substance and incubation, stimulation is carried out with in each case 25μ of ionomycin (final concentration 1 μM, Sigma I-0634) and phorbol myristate acetate (PMA, final concentration 25 ng/m, Sigma P-8139) per well. The spontaneous value receives 50μ of medium in place of ionomycin/PMA. Incubation overnight is then carried out. The supernatants are measured undiluted in an IL-2 ELISA (Pharmingen, capture mab: 18951 D detection mab: 20672 D). The IC50 determination was analysed by a logit-log plot.

[2] = tested on: IL-4 release from D10.G4.1 cells; assay: Inhibition of IL-4 release from D10.G4.1 cells (D10); format: cell-based; settings: D10 cells stimulated with anti-CD3 antibody, IL-4 ELISA of supernatants
Method: as §1
3 days after thawing and cultivating D10 cells in medium (RPMI-1640 with HEPES/10% FCS/2 mM glutamine/100 U/m penicillin/100 mg/m streptomycin and 50 μM mercaptoethanol) with Rat Stim™ (Collaborative Biomedical Products, Bedford Mass.) they are spun down, washed with medium without Rat Stim™, seeded at a concentration of 40,000 to 60,000 cells per well in a microtitre plate and incubated at 37° C./5% CO2/100% humidity for 3.5 hours. The substances to be tested are then applied in various concentrations in each case 50μ per well. The determinations of the maximum value and spontaneous value each receive 50μ of medium/0.4% DMSO.
After a further 30 minutes of incubation, stimulation is carried out with in each case 50μ of anti-CD3 antibody (145-2C11, Cedarlane Laboratories Limited, Hornby/Ontario) per well (final dilution 1:100). The determination of the spontaneous value receives 50μ of medium. After incubation overnight, the supernatants are measured in an IL-4 ELISA (Pharmingen: capture mab: 18031D; detection mab: 18042 D). The IC50 determination was analysed by a logit-log plot.

[3] = tested on: IL-5 release from D10.G4.1 cells; assay: Inhibition of IL-5 release from D10.G4.1 cells (D10); format: cell-based; settings: D10 cells stimulated with anti-CD3 antibody, IL-5 ELISA of supernatants
Method: as §1
3 days after thawing and cultivating D10 cells in medium (RPMI-1640 with HEPES/10% FCS/2 mM glutamine/100 U/m penicillin/100 mg/m streptomycin and 50 μM mercaptoethanol) with Rat Stirm™ (Collaborative Biomedical Products, Bedford Mass.) they are spun down, washed with medium without Rat Stim™, seeded at a concentration of 40,000 to 60,000 cells per well in a microtitre plate and incubated at 37° C./5% CO2/100% humidity for 3.5 hours. The substances to be tested are then applied in various concentrations in each case 50μ per well. The determinations of the maximum value and spontaneous value each receive 50μ d of medium/0.4% DMSO. After a further 30 minutes of incubation, stimulation is carried out with in each case 50μ of anti-CD3 antibody (145-2C11, Cedarlane Laboratories Limited, Hornby/Ontario) per well (final dilution 1:100). The determination of the spontaneous value receives 50μ of medium. After incubation overnight, the supernatants are measured in an IL-5 ELISA (Pharmingen: capture mab: 18051D; detection mab: 18062 D). The IC50 determination was analysed by a logit-log plot.

[4] = tested on: pulmonary infiltration of eosinophils; assay: Inhibition of the late phase eosinophilia 24 h after challenge of actively sensitized guinea pigs by ovalbumin inhalation; format: in vivo, Dunkin-Hartley guinea pigs; settings: 10 mg/kg i.p. 2 h before challenge, bronchoalveolar lavage 24 h after ovalbumin challenge; for Eosinophils B = eosinophils in the substance-treated group with ovalbumin challenge: mean
Method: The inhibition of the pulmonary infiltration of eosinophils by the substances is examined in an in vivo test on Dunkin-Hartley guinea pigs which have been actively sensitized against ovalbumin. The sensitization is effected by two subcutaneous injections of a suspension of 10 μg of ovalbumin together with 1 mg of aluminium hydroxide in 0.5 m of physiological saline as adjuvant at an interval of 14 days. 7 days after the second injection, the animals in the control group which are to be exposed to an ovalbumin aerosol are pretreated with mepyramine maleate (10 mg/kg i.p.) in order to protect from anaphylactic death. After 30 minutes, the animals are exposed in a plastic box for 30 sec to an ovalbumin aerosol (0.5 mg/m ) which is produced by an atomizer driven by compressed air (19.6 kPa). Control animals are exposed to an aerosol of physiological saline. 24 hours after the exposure to ovalbumin aerosol (challenge) the animals are anaesthetized with an overdose of ethylurethane (1.5 g/kg of body weight i.p.), and a bronchoalveolar lavage is carried out with 2×5 m of physiological saline. The lavage fluid is collected and centrifuged at 300 rpm for 10 min, and then the cell pellet is resuspended in 1 m of physiological saline. The eosinophils are stained using the Becton-Dickinson test kit (N.5877) for eosinophils and are counted in a Neubauer chamber. Each test includes 2 control groups (exposure to a physiological saline aerosol and exposure to an ovalbumin solution aerosol).
The test substances are administered intraperitoneally or orally as suspension in 10% polyethylene glycol 300 and 0.5% strength 5-hydroxyethylcellulose 2 hours before the allergen challenge. The control groups are treated with the vehicle in a form corresponding to the administration of the test substance. The number of animals in each control and test group is 3-10.

COc1c2c(c(O)c3c1C(=O)c1c(cc(O)c(C)c1O)C3=O)-c1c(cc3cn[nH]c(=O)c3c1O)CC2 [Compound 1, 10,12,15,16-Tetrahydroxy-8-methoxy-11-methyl-9,14-dioxo-6,7,9,14-tetrahydronaphthaceno[1,2-g]phthalazin-1-one]
IC50 [1]: 80 nM | IC50 [2]: 860 nM | IC50 [3]: 450 nM | Inhibition (of late phase eosinophilia) [4]: 112.4 | Eosinophils B = eosinophils in the substance-treated group with ovalbumin challenge [4]: 0.51 10^6/animal

COc1c2c(c(O)c3c1C(=O)c1c(O)cc(O)cc1C3=O)-c1c(cc3c(C)nn(C)c(=O)c3c1O)CC2 [Compound 2, 2-Methyl-10,12,15,16-tetrahydroxy-8-methoxy-1-methyl-9,14-dioxo-6,7,9,14-tetrahydronaphthaceno[1,2-g]phthalazin-1-one]
IC50 [2]: 1460 nM | IC50 [3]: 880 nM

CCCn1ncc2cc3c(c(O)c2c1=O)-c1c(O)c2c(c(OC)c1CC3)C(=O)c1c(cc(O)c(C)c1O)C2=O [Compound 3, 2-Propyl-10,12,15,16-tetrahydroxy-8-methoxy-11-methyl-9,14-dioxo-6,7,9,14-tetrahydronaphthaceno[1,2-g]phthalazin-1-one]
IC50 [2]: 2910 nM | melting point: 350 to 351 °C

COc1c2c(c(O)c3c1C(=O)c1c(cc(O)c(C)c1O)C3=O)-c1c(cc3cnn(CCO)c(=O)c3c1O)CC2 [Compound 4, 2-(2-Hydroxyethyl)-10,12,15,16-tetrahydroxy-8-methoxy-11-methyl-9,14-dioxo-6,7,9,14-tetrahydronaphthaceno[1,2-g]phthalazin-1-one]
melting point: > 300 °C

COc1c2c(c(O)c3c1C(=O)c1c(cc(O)c(C)c1O)C3=O)-c1c(cc3cnn(-c4ccccc4)c(=O)c3c1O)CC2 [Compound 5, 2-phenyl-10,12,15,16-tetrahydroxy-8-methoxy-11-methyl-9,14-dioxo-6,7,9, 14-tetrahydronaphthaceno[1,2-g]phthalazin-1-one]
IC50 [1]: 200 nM | IC50 [3]: 430 nM | Inhibition (of late phase eosinophilia) [4]: 85.0 | Eosinophils B = eosinophils in the substance-treated group with ovalbumin challenge [4]: 0.85 10^6/animal

COc1c2c(c(O)c3c1C(=O)c1c(cc(O)c(C)c1O)C3=O)-c1c(cc3cnn(CCOC(C)=O)c(=O)c3c1O)CC2 [Compound 6, 2-(2-Acetoxyethyl)-10,12,15,16-tetrahydroxy-8-methoxy-11-methyl-9,14-dioxo-6,7,9,14-tetrahydronaphthaceno[1,2-g]phthalazin-1-one]
melting point: > 350 °C

COC(=O)Oc1cc2c(c(O)c1C)C(=O)c1c(OC)c3c(c(O)c1C2=O)-c1c(cc2cnn(-c4ccccc4)c(=O)c2c1O)CC3 [Compound 7, 2-Phenyl-10,15,16-trihydroxy-8-methoxy-12-methoxycarbonyloxy-11-methyl-9,14-dioxo-6,7,9,14-tetrahydronaphthaceno[1,2-g]phthalazin-1-one]
melting point: > 350 °C

COc1c2c(c(O)c3c1C(=O)c1c(cc(O)c(C)c1O)C3=O)-c1c(cc3cnn(CCN)c(=O)c3c1O)CC2 [Compound 8, 2-(2-Aminoethyl)-10,12,15,16-tetrahydroxy-8-methoxy-11-methyl-9,14-dioxo-6,7,9,14-tetrahydronaphthaceno[1,2-g]phthalazin-1-one]
IC50 [2]: 2580 nM | IC50 [3]: 780 nM | melting point: > 350 °C (dec.)

Cc1c(O)cc2c(c1O)C(=O)c1c(O)c3c(c(O)c1C2=O)-c1c(cc2cnn(-c4ccccn4)c(=O)c2c1O)CC3 [Compound 9, 2-(2-Pyridyl)-8,10,12,15,16-pentahydroxy-11-methyl-9,14-dioxo-6,7,9,14-tetrahydronaphthaceno[1,2-g]phthalazin-1-one]
melting point: > 350 °C

Cc1c(O)cc2c(c1O)C(=O)c1c(O)c3c(c(O)c1C2=O)-c1c(cc2cnn(-c4ccccc4)c(=O)c2c1O)CC3 [Compound 10, 2-Phenyl-8,10,12,15,16-pentahydroxy-11-methyl-9,14-dioxo-6,7,9,14-tetrahydronaphthaceno[1,2-g]phthalazin-1-one]
melting point: > 350 °C

CCOC(Cn1ncc2cc3c(c(O)c2c1=O)-c1c(O)c2c(c(OC)c1CC3)C(=O)c1c(cc(O)c(C)c1O)C2=O)OCC [Compound 11, 2-(2,2-Diethoxyethyl)-10,12,15,16-tetrahydroxy-8-methoxy-11-methyl-9,14-dioxo-6,7,9,14-tetrahydronaphthaceno[1,2-g]phthalazin-1-one]
melting point: 285 °C

COc1c2c(c(OC(C)=O)c3c1C(=O)c1c(cc(OC(C)=O)c(C)c1OC(C)=O)C3=O)-c1c(cc3cnn(-c4ccccc4)c(=O)c3c1OC(C)=O)CC2 [Compound 12, 2-Phenyl-10,12,15,16-tetraacetoxy-8-methoxy-11-methyl-9,14-dioxo-6,7,9,14-tetrahydronaphthaceno[1,2-g]phthalazin-1-one]
melting point: 273 °C

COc1c2c(c(O)c3c1C(=O)c1c(cc(O)c(C)c1O)C3=O)-c1c(cc3cnn(-c4ncc[nH]4)c(=O)c3c1O)CC2 [Compound 15, 2-(2-Imidazolyl)-10,12,15,16-tetrahydroxy-8-methoxy-11-methyl-9,14-dioxo-6,7,9,14-tetrahydronaphthaceno[1,2-g]phthalazin-1-one]
melting point: > 350 °C (dec.)

COc1c2c(c(O)c3c1C(=O)c1c(cc(O)c(C)c1O)C3=O)-c1c(cc3cnn(-c4ccccn4)c(=O)c3c1O)CC2 [Compound 16, 2-(2-Pyridyl)-10,12,15,16-tetrahydroxy-8-methoxy-11-methyl-9,14-dioxo-6,7,9,14-tetrahydronaphtbaceno[1,2-g]phthalazin-1-one]
IC50 [3]: 520 nM

C=CCc1cc2c(c(O)c1C)C(=O)c1c(OC)c3c(c(O)c1C2=O)-c1c(cc2cnn(-c4ccccc4)c(=O)c2c1O)CC3 [Compound 17, 2-Phenyl-12-allyl-10,15,16-trihydroxy-8-methoxy-11-methyl-9,14-dioxo-6,7,9,14-tetrahydronaphthaceno[1,2-g]phthalazin-1-one]
melting point: 163 °C

Source: patent US6440968B1, “Use of maduraohtalazine derivatives as inhibitors of proinflammatory cytokines” (Elbion G.m.b.H., priority 1999, dated 2002)
